From ChEMBL document CHEMBL4507305, “Data for DCP probe TP-024” (2021)

Key:
[1] = target: Mitogen-activated protein kinase kinase kinase 13 (Homo sapiens) (UniProt O43283); details: Compound concentration 1000.0 nM
[2] = target: Rhodopsin kinase GRK1 (Homo sapiens) (UniProt Q15835); details: Compound concentration 1000.0 nM
[3] = target: Serine/threonine-protein kinase Chk1 (Homo sapiens) (UniProt O14757); details: Compound concentration 1000.0 nM
[4] = target: Non-receptor tyrosine-protein kinase TYK2 (Homo sapiens) (UniProt P29597); details: Compound concentration 1000.0 nM
[5] = target: Serine/threonine-protein kinase WNK4 (Homo sapiens) (UniProt Q96J92); details: Compound concentration 1000.0 nM
[6] = target: Tyrosine-protein kinase receptor Tie-1 (Homo sapiens) (UniProt P35590); details: Compound concentration 1000.0 nM
[7] = target: Tyrosine-protein kinase ABL1 (Homo sapiens) (UniProt P00519); details: Compound concentration 1000.0 nM
[8] = target: Macrophage colony-stimulating factor 1 receptor (Homo sapiens) (UniProt P07333); details: Compound concentration 1000.0 nM
[9] = target: Tyrosine-protein kinase receptor TYRO3 (Homo sapiens) (UniProt Q06418); details: Compound concentration 1000.0 nM
[10] = test system: Mast/stem cell growth factor receptor Kit (Homo sapiens), P10721 [V559D]; details: Compound concentration 1000.0 nM
[11] = target: Calcium/calmodulin-dependent protein kinase type II subunit gamma (Homo sapiens) (UniProt Q13555); details: Compound concentration 1000.0 nM
[12] = test system: Proto-oncogene tyrosine-protein kinase receptor Ret (Homo sapiens), P07949 [V804M]; details: Compound concentration 1000.0 nM
[13] = target: Tyrosine-protein kinase Fer (Homo sapiens) (UniProt P16591); details: Compound concentration 1000.0 nM
[14] = target: 5-hydroxytryptamine receptor 2A (Homo sapiens) (UniProt P28223); details: Compound concentration 10.0 uM
[15] = target: Insulin receptor (Homo sapiens) (UniProt P06213); details: Compound concentration 1000.0 nM
[16] = target: Bone morphogenetic protein receptor type-2 (Homo sapiens) (UniProt Q13873); details: Compound concentration 1000.0 nM
[17] = target: Discoidin domain-containing receptor 2 (Homo sapiens) (UniProt Q16832); details: Compound concentration 1000.0 nM
[18] = target: Serine/threonine-protein kinase Sgk1 (Homo sapiens) (UniProt O00141); details: Compound concentration 1000.0 nM
[19] = target: Phosphatidylinositol 4-phosphate 5-kinase type-1 alpha (Homo sapiens) (UniProt Q99755); details: Compound concentration 1000.0 nM
[20] = target: Epidermal growth factor receptor (Homo sapiens) (UniProt P00533); details: Compound concentration 1000.0 nM
[21] = target: Mitogen-activated protein kinase 15 (Homo sapiens) (UniProt Q8TD08); details: Compound concentration 1000.0 nM
[22] = target: MAP kinase-interacting serine/threonine-protein kinase 1 (Homo sapiens) (UniProt Q9BUB5); details: Compound concentration 1000.0 nM
[23] = target: Citron Rho-interacting kinase (Homo sapiens) (UniProt O14578); details: Compound concentration 1000.0 nM
[24] = target: 5-hydroxytryptamine receptor 3A (Homo sapiens) (UniProt P46098); details: Compound concentration 10.0 uM
[25] = test system: Phosphatidylinositol 4,5-bisphosphate 3-kinase catalytic subunit alpha isoform (Homo sapiens), P42336 [C420R]; details: Compound concentration 1000.0 nM
[26] = target: Tyrosine-protein kinase Mer (Homo sapiens) (UniProt Q12866); details: Compound concentration 1000.0 nM
[27] = test system: Phosphatidylinositol 4,5-bisphosphate 3-kinase catalytic subunit alpha isoform (Homo sapiens), P42336 [M1043I]; details: Compound concentration 1000.0 nM
[28] = target: Cyclin-dependent kinase 16 (Homo sapiens) (UniProt Q00536); details: Compound concentration 1000.0 nM
[29] = target: TRAF2 and NCK-interacting protein kinase (Homo sapiens) (UniProt Q9UKE5); details: Compound concentration 1000.0 nM
[30] = target: Serine/threonine-protein kinase 17A (Homo sapiens) (UniProt Q9UEE5); details: Compound concentration 1000.0 nM
[31] = target: Dual specificity mitogen-activated protein kinase kinase 2 (Homo sapiens) (UniProt P36507); details: Compound concentration 1000.0 nM
[32] = target: Receptor tyrosine-protein kinase erbB-3 (Homo sapiens) (UniProt P21860); details: Compound concentration 1000.0 nM
[33] = target: RAC-alpha serine/threonine-protein kinase (Homo sapiens) (UniProt P31749); details: Compound concentration 1000.0 nM
[34] = target: Myotonin-protein kinase (Homo sapiens) (UniProt Q09013); details: Compound concentration 1000.0 nM
[35] = target: Serine/threonine-protein kinase STK11 (Homo sapiens) (UniProt Q15831); details: Compound concentration 1000.0 nM
[36] = target: Serine/threonine-protein kinase BRSK1 (Homo sapiens) (UniProt Q8TDC3); details: Compound concentration 1000.0 nM
[37] = target: Serine/threonine-protein kinase Chk2 (Homo sapiens) (UniProt O96017); details: Compound concentration 1000.0 nM
[38] = target: TGF-beta receptor type-1 (Homo sapiens) (UniProt P36897); details: Compound concentration 1000.0 nM
[39] = target: Inhibitor of nuclear factor kappa-B kinase subunit epsilon (Homo sapiens) (UniProt Q14164); details: Compound concentration 1000.0 nM
[40] = target: Proto-oncogene tyrosine-protein kinase Src (Homo sapiens) (UniProt P12931); details: Compound concentration 1000.0 nM
[41] = target: Serine/threonine-protein kinase MRCK gamma (Homo sapiens) (UniProt Q6DT37); details: Compound concentration 1000.0 nM
[42] = target: RAC-gamma serine/threonine-protein kinase (Homo sapiens) (UniProt Q9Y243); details: Compound concentration 1000.0 nM
[43] = target: Misshapen-like kinase 1 (Homo sapiens) (UniProt Q8N4C8); details: Compound concentration 1000.0 nM
[44] = target: Serine/threonine-protein kinase pim-3 (Homo sapiens) (UniProt Q86V86); details: Compound concentration 1000.0 nM
[45] = target: Cyclin-dependent kinase 5 (Homo sapiens) (UniProt Q00535); details: Compound concentration 1000.0 nM

Insulin receptor (Homo sapiens), sequence (P06213 28-758 limits assumed): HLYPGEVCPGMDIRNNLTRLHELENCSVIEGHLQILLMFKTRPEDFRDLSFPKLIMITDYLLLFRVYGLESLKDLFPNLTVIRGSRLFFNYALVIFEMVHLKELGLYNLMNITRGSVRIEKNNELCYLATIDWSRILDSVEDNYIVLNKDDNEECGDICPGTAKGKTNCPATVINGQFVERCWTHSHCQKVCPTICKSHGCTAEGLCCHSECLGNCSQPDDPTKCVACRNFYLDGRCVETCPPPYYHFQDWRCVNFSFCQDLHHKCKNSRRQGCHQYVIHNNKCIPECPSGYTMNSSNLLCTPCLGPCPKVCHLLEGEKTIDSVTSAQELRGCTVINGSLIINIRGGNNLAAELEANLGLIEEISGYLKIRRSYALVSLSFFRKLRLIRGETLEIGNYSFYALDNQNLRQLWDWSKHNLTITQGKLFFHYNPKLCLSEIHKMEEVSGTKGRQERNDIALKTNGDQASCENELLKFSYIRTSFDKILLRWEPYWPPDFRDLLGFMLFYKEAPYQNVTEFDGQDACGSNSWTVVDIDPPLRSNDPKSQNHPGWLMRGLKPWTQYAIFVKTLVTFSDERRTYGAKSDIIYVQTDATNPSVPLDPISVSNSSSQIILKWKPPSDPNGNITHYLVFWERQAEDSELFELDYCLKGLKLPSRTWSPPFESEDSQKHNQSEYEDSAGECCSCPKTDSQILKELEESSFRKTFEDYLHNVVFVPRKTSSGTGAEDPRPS
Insulin receptor (Homo sapiens), sequence (P06213 763-1382 limits assumed): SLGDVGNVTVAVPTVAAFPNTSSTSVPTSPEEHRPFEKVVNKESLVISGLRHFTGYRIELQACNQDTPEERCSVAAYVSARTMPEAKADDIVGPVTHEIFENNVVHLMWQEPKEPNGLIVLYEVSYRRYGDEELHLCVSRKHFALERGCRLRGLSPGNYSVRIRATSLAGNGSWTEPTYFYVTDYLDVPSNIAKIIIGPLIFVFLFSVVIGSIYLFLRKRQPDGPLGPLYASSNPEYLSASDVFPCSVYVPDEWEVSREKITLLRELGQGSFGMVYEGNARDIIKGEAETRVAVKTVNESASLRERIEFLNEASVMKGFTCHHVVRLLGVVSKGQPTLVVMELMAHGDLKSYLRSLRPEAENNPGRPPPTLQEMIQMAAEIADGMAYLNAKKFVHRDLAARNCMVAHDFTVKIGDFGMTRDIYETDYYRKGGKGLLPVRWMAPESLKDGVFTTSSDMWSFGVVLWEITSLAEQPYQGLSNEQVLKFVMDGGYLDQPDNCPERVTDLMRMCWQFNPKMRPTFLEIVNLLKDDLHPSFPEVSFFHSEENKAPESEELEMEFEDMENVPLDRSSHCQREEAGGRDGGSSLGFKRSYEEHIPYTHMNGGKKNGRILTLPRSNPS
Proto-oncogene tyrosine-protein kinase receptor Ret (Homo sapiens), P07949 [V804M], sequence (P07949 whole entry V804M): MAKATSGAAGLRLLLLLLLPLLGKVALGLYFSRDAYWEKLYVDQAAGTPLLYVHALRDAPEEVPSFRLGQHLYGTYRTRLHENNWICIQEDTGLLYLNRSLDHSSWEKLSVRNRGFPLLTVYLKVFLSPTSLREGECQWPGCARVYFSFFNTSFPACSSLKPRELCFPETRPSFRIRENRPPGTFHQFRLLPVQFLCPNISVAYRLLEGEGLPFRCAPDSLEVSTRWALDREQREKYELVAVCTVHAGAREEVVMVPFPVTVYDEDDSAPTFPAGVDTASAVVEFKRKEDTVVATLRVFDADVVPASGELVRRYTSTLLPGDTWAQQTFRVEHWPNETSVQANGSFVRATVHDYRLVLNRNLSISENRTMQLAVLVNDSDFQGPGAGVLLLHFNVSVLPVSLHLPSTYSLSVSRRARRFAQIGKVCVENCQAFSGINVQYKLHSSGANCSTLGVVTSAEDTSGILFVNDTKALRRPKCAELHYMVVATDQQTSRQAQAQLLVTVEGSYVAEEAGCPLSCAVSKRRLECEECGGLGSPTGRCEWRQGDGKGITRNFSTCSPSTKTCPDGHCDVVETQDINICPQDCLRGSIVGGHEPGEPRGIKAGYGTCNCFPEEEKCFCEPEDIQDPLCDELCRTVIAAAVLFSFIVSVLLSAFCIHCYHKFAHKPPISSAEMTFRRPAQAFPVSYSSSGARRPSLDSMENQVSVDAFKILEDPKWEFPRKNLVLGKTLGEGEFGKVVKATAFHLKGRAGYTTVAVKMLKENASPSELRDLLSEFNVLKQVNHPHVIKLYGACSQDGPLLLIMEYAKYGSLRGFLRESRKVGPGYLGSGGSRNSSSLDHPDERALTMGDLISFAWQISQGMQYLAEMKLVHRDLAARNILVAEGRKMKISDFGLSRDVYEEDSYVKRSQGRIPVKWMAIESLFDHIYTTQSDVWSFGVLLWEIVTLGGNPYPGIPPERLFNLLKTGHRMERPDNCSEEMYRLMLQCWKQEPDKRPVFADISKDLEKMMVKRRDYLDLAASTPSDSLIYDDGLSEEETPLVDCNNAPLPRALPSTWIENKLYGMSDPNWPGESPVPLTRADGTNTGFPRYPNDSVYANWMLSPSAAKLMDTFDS
Calcium/calmodulin-dependent protein kinase type II subunit gamma (Homo sapiens), sequence (Q13555 whole entry): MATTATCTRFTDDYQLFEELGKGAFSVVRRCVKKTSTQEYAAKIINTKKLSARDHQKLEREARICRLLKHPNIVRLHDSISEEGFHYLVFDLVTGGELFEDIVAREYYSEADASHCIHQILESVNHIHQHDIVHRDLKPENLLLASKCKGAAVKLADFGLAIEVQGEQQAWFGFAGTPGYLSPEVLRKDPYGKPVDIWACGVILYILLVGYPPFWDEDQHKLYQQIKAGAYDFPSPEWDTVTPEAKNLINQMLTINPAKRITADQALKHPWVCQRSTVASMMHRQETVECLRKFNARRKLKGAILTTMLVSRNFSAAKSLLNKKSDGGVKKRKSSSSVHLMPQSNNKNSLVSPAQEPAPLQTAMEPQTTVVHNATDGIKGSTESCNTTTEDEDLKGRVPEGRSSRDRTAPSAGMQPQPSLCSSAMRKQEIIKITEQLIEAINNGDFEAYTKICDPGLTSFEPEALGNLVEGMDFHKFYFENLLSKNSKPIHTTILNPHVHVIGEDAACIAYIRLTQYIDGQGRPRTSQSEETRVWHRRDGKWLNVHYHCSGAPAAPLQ
Rhodopsin kinase GRK1 (Homo sapiens), sequence (Q15835 whole entry): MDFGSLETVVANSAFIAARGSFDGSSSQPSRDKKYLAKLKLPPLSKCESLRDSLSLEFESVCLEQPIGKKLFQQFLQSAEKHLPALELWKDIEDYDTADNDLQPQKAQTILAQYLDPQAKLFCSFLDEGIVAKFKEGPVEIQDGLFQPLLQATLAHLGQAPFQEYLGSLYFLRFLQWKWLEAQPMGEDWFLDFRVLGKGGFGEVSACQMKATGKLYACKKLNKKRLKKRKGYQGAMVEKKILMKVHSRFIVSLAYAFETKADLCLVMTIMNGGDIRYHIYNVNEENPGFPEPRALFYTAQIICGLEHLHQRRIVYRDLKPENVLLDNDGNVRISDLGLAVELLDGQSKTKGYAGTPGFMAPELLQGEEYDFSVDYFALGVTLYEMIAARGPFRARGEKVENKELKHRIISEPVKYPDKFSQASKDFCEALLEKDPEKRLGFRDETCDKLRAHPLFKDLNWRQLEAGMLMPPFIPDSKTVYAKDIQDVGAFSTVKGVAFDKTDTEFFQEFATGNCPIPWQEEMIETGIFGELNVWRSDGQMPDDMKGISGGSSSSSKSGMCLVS
Bone morphogenetic protein receptor type-2 (Homo sapiens), sequence (Q13873 whole entry, the tested form may be a part): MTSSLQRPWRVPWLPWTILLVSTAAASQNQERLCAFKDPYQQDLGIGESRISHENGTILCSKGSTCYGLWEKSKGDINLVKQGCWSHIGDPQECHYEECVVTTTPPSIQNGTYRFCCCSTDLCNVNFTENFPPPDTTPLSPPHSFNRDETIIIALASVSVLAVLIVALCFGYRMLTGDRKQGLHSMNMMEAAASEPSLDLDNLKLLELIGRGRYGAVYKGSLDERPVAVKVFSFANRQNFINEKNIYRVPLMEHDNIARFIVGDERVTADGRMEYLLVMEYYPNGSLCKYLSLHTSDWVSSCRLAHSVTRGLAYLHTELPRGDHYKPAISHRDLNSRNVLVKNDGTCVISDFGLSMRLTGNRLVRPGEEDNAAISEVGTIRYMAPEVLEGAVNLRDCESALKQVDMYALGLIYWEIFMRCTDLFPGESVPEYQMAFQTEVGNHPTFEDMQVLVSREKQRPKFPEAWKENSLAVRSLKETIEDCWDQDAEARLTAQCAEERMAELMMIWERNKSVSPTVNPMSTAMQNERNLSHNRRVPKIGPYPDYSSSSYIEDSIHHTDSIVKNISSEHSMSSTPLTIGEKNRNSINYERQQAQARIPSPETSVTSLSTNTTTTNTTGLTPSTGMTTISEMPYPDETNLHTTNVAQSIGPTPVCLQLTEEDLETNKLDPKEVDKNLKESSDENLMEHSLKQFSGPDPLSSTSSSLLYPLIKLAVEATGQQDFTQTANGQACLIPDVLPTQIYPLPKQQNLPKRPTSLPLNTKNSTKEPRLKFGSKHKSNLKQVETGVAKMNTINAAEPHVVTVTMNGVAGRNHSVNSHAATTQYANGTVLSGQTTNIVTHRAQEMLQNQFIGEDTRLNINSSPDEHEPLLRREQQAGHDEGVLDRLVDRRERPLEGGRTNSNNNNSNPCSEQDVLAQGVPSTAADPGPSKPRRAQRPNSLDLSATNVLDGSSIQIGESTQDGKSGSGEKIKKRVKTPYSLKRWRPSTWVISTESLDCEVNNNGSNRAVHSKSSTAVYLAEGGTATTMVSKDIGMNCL

Compound: Cc1nc(Cc2cccc(C(F)(F)F)c2)sc1-c1ccc(C(N)=O)nc1 [TP-024n]
- residual activity [1]: 100%
- residual activity [2]: 98%
- residual activity [3]: 100%
- residual activity [4]: 100%
- residual activity [5]: 100%
- residual activity [6]: 28%
- residual activity [7]: 98%
- residual activity [8]: 100%
- residual activity [9]: 99%
- residual activity [10]: 100%
- residual activity [11]: 93%
- residual activity [12]: 88%
- residual activity [13]: 100%
- inhibition [14]: 20.4%
- residual activity [15]: 95%
- residual activity [16]: 100%
- residual activity [17]: 100%
- residual activity [18]: 100%
- residual activity [19]: 100%
- residual activity [20]: 100%
- residual activity [21]: 100%
- residual activity [22]: 100%
- residual activity [23]: 65%
- inhibition [24]: 4.72%
- residual activity [25]: 89%
- residual activity [26]: 98%
- residual activity [27]: 15%
- residual activity [28]: 100%
- residual activity [29]: 100%
- residual activity [30]: 82%
- residual activity [31]: 98%
- residual activity [32]: 100%
- residual activity [33]: 82%
- residual activity [34]: 100%
- residual activity [35]: 100%
- residual activity [36]: 100%
- residual activity [37]: 100%
- residual activity [38]: 90%
- residual activity [39]: 76%
- residual activity [40]: 80%
- residual activity [41]: 100%
- residual activity [42]: 92%
- residual activity [43]: 92%
- residual activity [44]: 100%
- residual activity [45]: 100%

Compound: Cc1cc(-n2nc(Cc3cc(F)cc(C(F)(F)F)c3)nc2C)ccc1C(N)=O [TP-024]
- residual activity [1]: 100%
- residual activity [2]: 87%
- residual activity [3]: 100%
- residual activity [4]: 100%
- residual activity [5]: 100%
- residual activity [6]: 100%
- residual activity [7]: 100%
- residual activity [8]: 100%
- residual activity [9]: 100%
- residual activity [10]: 83%
- residual activity [11]: 100%
- residual activity [12]: 100%
- residual activity [13]: 79%
- inhibition [14]: 10.5%
- residual activity [15]: 99%
- residual activity [16]: 100%
- residual activity [17]: 100%
- residual activity [18]: 100%
- residual activity [19]: 100%
- residual activity [20]: 100%
- residual activity [21]: 95%
- residual activity [22]: 100%
- residual activity [23]: 95%
- inhibition [24]: 5.45%
- residual activity [25]: 93%
- residual activity [26]: 100%
- residual activity [27]: 95%
- residual activity [28]: 100%
- residual activity [29]: 100%
- residual activity [30]: 100%
- residual activity [31]: 100%
- residual activity [32]: 100%
- residual activity [33]: 94%
- residual activity [34]: 100%
- residual activity [35]: 100%
- residual activity [36]: 100%
- residual activity [37]: 100%
- residual activity [38]: 94%
- residual activity [39]: 82%
- residual activity [40]: 95%
- residual activity [41]: 100%
- residual activity [42]: 100%
- residual activity [43]: 93%
- residual activity [44]: 100%
- residual activity [45]: 100%
